ChEMBL document CHEMBL1201862, “PubChem BioAssay data set” (2004)
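Cultured in 96-well plates, cells were exposed to test compound for 48 hours across five concentrations. GI50 is the concentration that inhibits growth by half.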 Calls of active or inactive are those of the source. No stated cut-off is given here; in the data, active = GI50 up to about 1.1 µM and inactive = higher.

Assays:
Assay in all cases: NCI-60 cell line screen, 48 h
[1] = test system: UACC-62
[2] = test system: NCI-H226
[3] = test system: IGROV-1
[4] = test system: A498
[5] = test system: KM12
[6] = test system: HT-29
[7] = test system: EKVX
[8] = test system: HOP-92
[9] = test system: OVCAR-4
[10] = test system: A549
[11] = test system: SK-MEL-2
[12] = test system: UO-31
[13] = test system: CAKI-1
[14] = test system: Malme-3M
[15] = test system: NCI-H522
[16] = test system: SW-620

Measured: GI50

CN(Cc1ccccc1)c1nc(=[N+](C)C)ss1
inactive: [1] 24.6 µM | [2] 8.95 µM | [3] > 100 µM | [4] 99.5 µM | [5] 9.42 µM | [6] 74.8 µM | [7] > 100 µM | [8] > 100 µM | [9] > 100 µM | [10] 33.2 µM | [11] 25.9 µM | [12] > 100 µM | [13] > 100 µM | [14] > 100 µM | [15] 41.1 µM | [16] > 100 µM

NC(=O)CN(CC(N)=O)C(N)=O
inactive: [1] > 100 µM | [2] > 100 µM | [3] > 100 µM | [4] > 100 µM | [5] > 100 µM | [6] > 100 µM | [7] > 100 µM | [8] > 100 µM | [9] > 100 µM | [10] > 100 µM | [11] > 100 µM | [12] > 100 µM | [13] > 100 µM | [14] > 100 µM | [15] > 100 µM | [16] > 100 µM

O=C1N/C(=C\[N+](=O)[O-])c2ccccc21
inactive: [1] > 100 µM | [2] > 100 µM | [3] > 100 µM | [4] > 100 µM | [5] > 100 µM | [6] > 100 µM | [7] > 100 µM | [8] > 100 µM | [9] > 100 µM | [10] > 100 µM | [12] > 100 µM | [14] > 100 µM | [15] > 100 µM | [16] > 100 µM

COc1cc(Br)c(C2OCCCO2)cc1OCc1ccccc1
inactive: [1] 73.5 µM | [2] 17.5 µM | [3] > 100 µM | [4] > 100 µM | [5] > 100 µM | [6] > 100 µM | [7] > 100 µM | [8] 9.86 µM | [9] 69.5 µM | [10] 73.5 µM | [11] > 100 µM | [12] 28.2 µM | [15] 66.1 µM | [16] > 100 µM

Nc1c(-c2ccccc2-c2c(N)[n+]([O-])c3ccccc3[n+]2[O-])[n+]([O-])c2ccccc2[n+]1[O-]
inactive: [1] 3.7 µM | [2] 19.5 µM | [4] 20.8 µM | [5] 8.32 µM | [6] 6.9 µM | [7] 5.37 µM | [8] > 100 µM | [9] 4.89 µM | [10] 11.4 µM | [11] 34.8 µM | [12] 10 µM | [13] 33.5 µM | [14] 35 µM | [15] 2.06 µM | [16] 8.45 µM
